Where two headings read alike, the source gives them in different places. Square brackets hold non-standard residues; d marks the D form. Ends that are not written are not given here.
Legend:
[1] = system: polymicrobial infection; assay: Cecal ligation and puncture (CLP) polymicrobial infection, survival; type: in vivo, mice; conditions: moxifloxacin alone, high dose (LD90) at 12 hours post CLP
[2] = in vivo
[3] = system: E. coli strain 018:K1; assay: E. coli peritonitis, survival; type: in vivo, BALB/c mice
[4] = system: Streptococcus pneumoniae; type: in vivo, BALB/c mice; conditions: ceftriaxone alone 1 mg/kg i.p. (suboptimal) at 24 hours post infection
Procedure: Treatment with the peptide D-Ala-p2TA was adjunct to antibiotic treatment, and was given at a delayed time point, when the infection was already established.
When the animals are treated with ceftriaxone alone, administered intraperitoneal (i.p.) at a suboptimal dose of LD25 (1 mg/kg), given at 24 hours after the infection, survival rates increased to 20%. However, when the peptide D-Ala-p2TA (at 5 mg/kg) was given in combination with the antibiotics, 24 hours post infection, substantial increase in survival, to 50%, was detected (see FIG. 17).
The correlation between survival benefit and different doses of the peptide D-Ala-p2TA was investigated when the S. pneumoniae infected animals (n=10) received a combination of a fixed dose of antibiotics (ceftriaxone, at a suboptimal dose of 1 mg/kg, administered i.p.) and different doses of the peptide D-Ala-p2TA, given 2 minutes after antibiotic treatment at 24 hours post infection. Under these experimental conditions (see FIG. 18), non-treated mice died rapidly, starting at day 2, and by day 3, all animals were already dead. Antibiotic treatment alone did provide a minor change in survival, bringing it to 20%.

[5] = system: S. pyogenes; design: species or system BALB/c mice; conditions: mouse, in vivo

COc1c(N2C[C@@H]3CCCN[C@@H]3C2)c(F)cc2c(=O)c(C(=O)O)cn(C3CC3)c12 [moxifloxacin]
survival rate [1]: 22%

CSCC[C@H](NC(=O)[C@@H]1CCCN1C(=O)[C@@H](N)CO)C(=O)N[C@@H](CC(C)C)C(=O)N[C@H](C(=O)N[C@@H](C)C(=O)N[C@@H](Cc1ccc(O)cc1)C(=O)N[C@@H](CC(=O)O)C(=O)O)C(C)C [p2TA, SPMLVAYD]
half-life [2]: 1 to 2.6 min

[dA]ASMDYPVL[dA] [scrambled peptide]
survival rate ([3]; scrambled peptide control): comparable to the saline treated control

H-D-Ala-Ser-Pro-Met-Leu-[U-^14C]Val-Ala-Tyr-Asp-D-Ala-OH [[^14C]-D-Ala-p2TA]
time of peak accumulation in lymphatic organs (lymph nodes) (5 mg/kg single i.v., radioactivity): 20 min | ratio of lymph nodes to plasma (4 minutes post infusion): greater than 1 | ratio of radioactivity in spleen compared to plasma (20 min after injection): 6 fold | levels in lymph nodes vs plasma (20 minutes): 22 fold | levels in lymph nodes vs plasma (24 hours post dosing): greater than 3 fold | ratio of radioactivity in spleen compared to plasma (24 hours post injection): 3 fold | levels in lymph nodes vs plasma (for 2 hours): more than 5 fold | start of accumulation in lymphatic organs (post injection, 5 mg/kg single i.v.): 4 min

CO/N=C(\C(=O)N[C@@H]1C(=O)N2C(C(=O)O)=C(CSc3nc(=O)c(=O)[nH]n3C)CS[C@H]12)c1csc(N)n1 [ceftriaxone]
survival [4]: 20% | survival [5]: 70%

CO/N=C(\C(=O)N[C@@H]1C(=O)N2C(C(=O)[O-])=C(C[N+]3(C)CCCC3)CS[C@H]12)c1csc(N)n1 [cefepime]
overall survival ([3]; cefepime alone, suboptimal 5 mg/kg i.m. 4 hours after challenge): 20%

Reference: US9567367B2, “Synthetic peptides for treatment of bacterial infections” (priority 2012, dated 2017)
